In patent US20240287022A1 (Merck Sharp & Dohme LLC, priority 2021, published 2024):

Biological target: recombinant IL4I1 (Homo sapiens (Human), UniProt Q96RQ9)
Assay: IL4I1 Enzymatic Assay (Amplex Red/HRP coupled H2O2 detection)
Format: biochemical
Settings: 1 nM IL4I1, 1 mM each Phe/Tyr/Trp, four-hour pre-incubation, 120 minutes reaction, top compound concentration of 10000 nM
Procedure: Interleukin 4 inducible protein 1 (IL4I1) is an L-amino oxidase that catalyzes the oxidation of aromatic residues (Phe, Trp and Tyr): L-amino acid+H2O+O2→2-oxo acid+NH3+H2O2. Equal molar of H2O2 and the corresponding alpha-ketoacid are produced when IL4I1 and substrate are added. In this assay, the hydrogen peroxide generated by IL4I1 are then detected through a coupled reaction with Amplex Red (10-acetyl-3,7-dihydroxyphenoxazine) and […] (HRP) to produce Resorufin product that could be detected in the form of fluorescence signals. The assessment of the inhibitory effect of small molecules (EC50) on IL4I1 is measured by the effectiveness of the compounds to inhibit the production of H2O2.
Using this assay, the potency (EC50) of each compound was determined from a ten-point (1:3 serial dilution; top compound concentration of 10000 nM) titration curve using the following outlined procedure. To each well of a black flat-bottom Greiner (Cat #781076) 384 well-plate, 25 nL of compound (0.1% DMSO in final assay volume of 25 μL) was dispensed, followed by the addition of 12.5 μL of 1× assay buffer (50 mM Hepes 7.0 and 0.005% Tween20 (Sigma, Cat #P8341; low peroxide grade)) containing 2 nM of recombinant IL4I1 (R&D Systems, Cat #5684-AO-020). Plates were placed in an ambient temperature humidified chamber for a four-hour pre-incubation with compound. Subsequently, each reaction was initiated by the addition of 12.5 μL 1× assay buffer containing 2 mM of each aromatic amino acids (Phe/Tyr/Trp), 0.1 mM Amplex Red and 2 U/mL of HRP. The final reaction in each well of 25 μL consists of 1 nM of IL4I1, 1 mM of each residues (Phe, Tyr and Trp), 0.05 mM Amplex Red and 1 U/mL of HRP. It should be noted that the concentrations of Amplex Red and HRP used here are in excess such that the conversion of H2O2 to Resorufin product occurs instantaneously and non-rate limiting. Reactions were allowed to proceed for 120 minutes followed by fluorescence readout on a Spectramax with the following set parameters: 544 nm excitation/590 nm emission, 570 nm cutoff (EnVision is an alternative reader). Dose-response curves were generated by plotting percent effect (% product conversion; Y-axis) vs. Log10 compound concentrations (X-axis). EC50 values were calculated using a non-linear regression, four-parameters sigmoidal dose-response model.

Sequence of recombinant IL4I1 (Q96RQ9 22-567): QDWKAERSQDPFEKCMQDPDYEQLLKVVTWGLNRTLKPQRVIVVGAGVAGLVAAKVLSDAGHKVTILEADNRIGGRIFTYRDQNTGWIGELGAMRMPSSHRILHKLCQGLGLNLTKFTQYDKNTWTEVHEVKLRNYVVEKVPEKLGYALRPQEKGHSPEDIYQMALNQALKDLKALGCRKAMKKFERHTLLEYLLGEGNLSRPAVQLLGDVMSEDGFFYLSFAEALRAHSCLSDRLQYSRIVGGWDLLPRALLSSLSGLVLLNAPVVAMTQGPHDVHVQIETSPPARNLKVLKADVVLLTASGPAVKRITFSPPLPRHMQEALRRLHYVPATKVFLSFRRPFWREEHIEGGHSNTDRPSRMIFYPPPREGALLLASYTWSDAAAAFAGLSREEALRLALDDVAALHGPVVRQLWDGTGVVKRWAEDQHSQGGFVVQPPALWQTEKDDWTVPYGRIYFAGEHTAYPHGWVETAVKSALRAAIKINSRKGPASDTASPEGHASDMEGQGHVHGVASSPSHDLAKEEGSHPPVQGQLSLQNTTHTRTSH

EC50 | SMILES
18.6 nM | O=c1[nH]c2ccccc2cc1Cc1ccc2nn[nH]c2c1 [Example 132, 3-((1H-benzo[d][1,2,3]triazol-6-yl)methyl)quinolin-2(1H)-one]
9.1 nM | O=C1NC(=O)c2cc(Cc3cc4ccccc4[nH]c3=O)ccc21 [Example 185, 5-((2-oxo-1,2-dihydroquinolin-3-yl)methyl)isoindoline-1,3-dione]
4.9 nM | CC(=O)NCc1ccc(Cc2cc3ccccc3[nH]c2=O)c(F)c1 [Example 167, N-(3-fluoro-4-((2-oxo-1,2-dihydroquinolin-3-yl)methyl)benzyl)acetamide]
2.7 nM | CC(=O)NCc1ccc(Cc2cc3ccccc3[nH]c2=O)cc1F [Example 166, N-(2-fluoro-4-((2-oxo-1,2-dihydroquinolin-3-yl)methyl)benzyl)acetamide]
3.4 nM | CC(=O)NCc1ccc(Cc2cc3ccccc3[nH]c2=O)cc1C [Example 168, N-(2-methyl-4-((2-oxo-1,2-dihydroquinolin-3-yl)methyl)benzyl)acetamide]
1.4 nM | O=c1[nH]c2ccccc2cc1Cc1ccc2scnc2c1 [Example 156, 3-(benzo[d]thiazol-5-ylmethyl)quinolin-2(1H)-one]
8.9 nM | NS(=O)(=O)c1ccc(Cc2cc3ccccc3[nH]c2=O)cc1Cl [Example 70, 2-chloro-4-((2-oxo-1,2-dihydroquinolin-3-yl)methyl)benzenesulfonamide]

The next lines start with the molecule.

SMILES | EC50
CC(O)C(C#N)c1ccc(Cc2cc3ccccc3[nH]c2=O)cc1 (single isomer, unassigned) [Example 102D, 3-hydroxy-2-(4-((2-oxo-1,2-dihydroquinolin-3-yl)methyl)phenyl)butanenitrile] | 10.9 nM
CC1(O)CN(c2ccc(Cc3cc4ccccc4[nH]c3=O)cn2)C(=O)O1 (racemic) [Example 51, rac-5-hydroxy-5-methyl-3-(5-((2-oxo-1,2-dihydroquinolin-3-yl)methyl)pyridin-2-yl)oxazolidin-2-one] | 29.1 nM
CC(C)(O)c1ccc2[nH]c(=O)c(Cc3ccccc3)cc2c1 [Example 173, 3-Benzyl-6-(2-hydroxypropan-2-yl)quinolin-2(1H)-one] | 6840 nM
O=c1[nH]c2ccncc2cc1Cc1ccc(C2(O)CCC2)cc1 [Example 113, 3-(4-(1-hydroxycyclobutyl)benzyl)-1,6-naphthyridin-2(1H)-one] | 7 nM
O=C1COc2c(Cc3cc4ccccc4[nH]c3=O)cccc2N1 [Example 122, 8-((2-oxo-1,2-dihydroquinolin-3-yl)methyl)-2H-benzo[b][1,4]oxazin-3(4H)-one] | 6.6 nM
CC(C)(O)c1ccc(Cc2cc3cnccc3[nH]c2=O)cc1Cl [Example 184, 3-(3-Chloro-4-(2-hydroxypropan-2-yl)benzyl)-1,6-naphthyridin-2(1H)-one] | 15.3 nM
O=C1OCCN1c1ncc(Cc2cc3ccccc3[nH]c2=O)cc1Cl [Example 53] | 5.6 nM
CC1(c2ccc(Cc3cc4ccccc4[nH]c3=O)cc2)CCC(=O)N1 (single isomer, unassigned) [Example 183B, (R or S)-3-(4-(2-methyl-5-oxopyrrolidin-2-yl)benzyl)quinolin-2(1H)-one] | 11.1 nM
O=c1[nH]c2ccccc2cc1Cc1ccc(N2CCNCC2)cc1 [Example 59, 3-(4-(piperazin-1-yl)benzyl)quinolin-2(1H)-one] | 23.6 nM
Cc1snnc1-c1nnc(Cc2cc3ccccc3[nH]c2=O)o1 [Example 17, 3-((5-(5-methyl-1,2,3-thiadiazol-4-yl)-1,3,4-oxadiazol-2-yl)methyl)quinolin-2(1H)-one] | 169 nM
Cc1cc(Cc2cc3ccccc3[nH]c2=O)cnc1-c1cccc(F)c1 [Example 131, 3-((6-(3-fluorophenyl)-5-methylpyridin-3-yl)methyl)quinolin-2(1H)-one] | 3.7 nM
O=C1COc2c(Cl)cc(Cc3cc4ccccc4[nH]c3=O)cc2N1 [Example 170, 8-Chloro-6-((2-oxo-1,2-dihydroquinolin-3-yl)methyl)-2H-benzo[b][1,4]oxazin-3(4H)-one] | 1 nM
